Here are results for 25 compounds from patent US8222290B2, “Substituted N-phenyl-bipyrrolidine ureas and therapeutic use thereof” (Sanofi, priority 2007, dated 2012).

Counter-ions that a name gives are not always drawn.

This test addresses T1, rhesus H3 receptor (Macaca mulatta, UniProt Q865E1).
T1 construct: rhesus monkey (Macacca Mulatta) 445 amino acid H3 receptor; (Genbank #AY231164); expressed in transfected cells; host or cells: Flp-In T-REx 293 Cell Line (Invitrogen), pcDNA5/FRT/TO, induced with tetracycline; membranes
Kind of test: Rhesus H3 [3H]-Methylhistamine radioligand binding assay (SPA). The arrangement: species or system rhesus monkey (Macacca Mulatta). Particulars: [3H]-Methylhistamine 2 nM, rhesus H3 membranes, Cheng-Prusoff. How it is done: Rhesus H3 membranes were prepared from the Flp-In T-REx 293 Cell Line (Invitrogen) stably transfected with pcDNA5/FRT/TO (Invitrogen) containing the rhesus monkey (Macacca Mulatta) 445 amino acid H3 receptor. (Genbank #AY231164). Stably transfected cultures were amplified in tissue culture flasks by standard tissue culture methods and induced to express rhesus H3 by exposure to 500 ng/ml tetracycline (Cellgro) for 24 hours. After induction, cells were dissociated from flasks utilizing Cell Stripper (Cellgro). Cells were centrifuged (1K×g, 5 min) and pellet frozen in an ethanol-dry ice bath to disrupt cell membranes. Frozen cell pellet was re-suspended in 5 mM HEPES (pH 7.4, Invitrogen) at 10 ml/1000 cm2 of harvested cells. The cell suspension was drawn through an 18 gauge needle (2-3×) followed by a 23 gauge needle (2-3×) to further disrupt cell membranes. The cell suspension was centrifuged (40K×g, 30 min). Cell membrane pellet was re-suspended in 5 mM HEPES (pH 7.4, Invitrogen) at a final protein concentration of 10 mg/ml. Rhesus H3 membranes were stored under liquid nitrogen prior to use in [3H]-Methylhistamine and GTPγS radioligand binding assays.
Rhesus H3 radioligand binding assay was performed using rhesus H3 receptor membranes (prepared as described above), [3H]-Methylhistamine (Perkin Elmer) and WGA SPA beads (wheat germ agglutinin scintillation proximity assay) beads (Amersham). The assay was performed in 96-well Opti-Plates (Packard). Each reaction contained 50 μl rhesus H3 membranes (20-30 μg total protein), 50 μl WGA SPA beads (0.1 μg) and 50 μl of 83Ci/mmol [^3H]-Methylhistamine (final concentration 2 nM) and 50 μl of tested compound. The compounds of this invention and/or vehicle were diluted with binding buffer from 10 mM DMSO stocks. Assay plates were sealed with TopSeal (Perkin Elmer) and mixed on shaker (25° C., 1 hour). Assay plates were read on TopCount scintillation counter (Packard). Results were analyzed by Hill transformation and Ki values were determined by Cheng-Prusoff equation.

T1 sequence (Q865E1 1-445): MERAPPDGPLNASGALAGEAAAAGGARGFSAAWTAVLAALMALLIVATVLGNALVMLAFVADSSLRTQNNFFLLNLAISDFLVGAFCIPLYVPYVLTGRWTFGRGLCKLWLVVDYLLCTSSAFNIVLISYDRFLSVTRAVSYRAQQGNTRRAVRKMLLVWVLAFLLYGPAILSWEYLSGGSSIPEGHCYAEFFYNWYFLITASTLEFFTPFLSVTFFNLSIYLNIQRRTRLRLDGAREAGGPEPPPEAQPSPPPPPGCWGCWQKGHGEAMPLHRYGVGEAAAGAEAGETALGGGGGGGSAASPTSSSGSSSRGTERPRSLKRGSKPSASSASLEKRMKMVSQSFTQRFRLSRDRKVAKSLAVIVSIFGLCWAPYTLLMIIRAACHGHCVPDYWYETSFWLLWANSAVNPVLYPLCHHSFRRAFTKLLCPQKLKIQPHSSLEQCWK

As usually defined, the Ki is the equilibrium dissociation constant of an inhibitor or competing ligand from its target. Turning to `CC1CCCN1C1CCN(c2ccc(NC(=O)N3CCCCC3)cc2)C1` (stereo not shown) [Example 1, Piperidine-1-carboxylic acid [4-(2-methyl-[1,3′]bipyrrolidinyl-1′-yl)-phenyl]-amide trifluoroacetate], the affinity, expressed as Ki, was 0.006 µM.

Take `CC(=O)N(C)C1CCN(C(=O)Nc2ccc(N3CCC(N4CCCC4C)C3)c(C)c2)C1` (stereo not shown) [Example 2, 3-(Acetyl-methyl-amino)-pyrrolidine-1-carboxylic acid [3-methyl-4-(2-methyl-[1,3′]bipyrrolidinyl-1′-yl)-phenyl]-amide trifluoroacetate]: the Ki is 0.0897 µM.

In the case of `CC1CCCN1C1CCN(c2ccc(NC(=O)NC3CCCCC3)cc2)C1` (stereo not shown) [Example 3, 1-Cyclohexyl-3-[4-(2-methyl-[1,3′]bipyrrolidinyl-1′-yl)-phenyl]-urea trifluoroacetate], the inhibitory constant (Ki) amounted to 0.0041 µM.

Compound `CC1CCCN1C1CCN(c2ccc(NC(=O)N3CCN(c4ccccc4)CC3)cc2)C1` (stereo not shown) [Example 4, 4-Phenyl-piperazine-1-carboxylic acid [4-(2-methyl-[1,3′]bipyrrolidinyl-1′-yl)-phenyl]-amide trifluoroacetate] displayed a Ki of 0.0106 µM.

`CC1CCCN1C1CCN(c2ccc(NC(=O)N3CCN(C)CC3)cc2)C1` (stereo not shown) [Example 5, 4-Methyl-piperazine-1-carboxylic acid [4-(2-methyl-[1,3′]bipyrrolidinyl-1′-yl)-phenyl]-amide trifluoroacetate] showed a Ki of 0.0257 µM.

The compound `CC1CCCN1C1CCN(c2ccc(NC(=O)N3Cc4ccccc4C3)cc2)C1` (stereo not shown) [Example 6, 1,3-Dihydro-isoindole-2-carboxylic acid [4-(2-methyl-[1,3′]bipyrrolidinyl-1′-yl)-phenyl]-amide trifluoroacetate] showed a Ki of 0.0111 µM.

`CC1CCCN1C1CCN(c2ccc(NC(=O)Nc3cccc(C#N)c3)cc2)C1` (stereo not shown) [Example 7, 1-(3-Cyano-phenyl)-3-[4-(2-methyl-[1,3′]bipyrrolidinyl-1′-yl)-phenyl]-urea trifluoroacetate] had a Ki of 0.0077 µM.

In turn, `CC1CCCN1C1CCN(c2ccc(NC(=O)NCc3cccs3)cc2)C1` (stereo not shown) [Example 8, 1-[4-(2-Methyl-[1,3′]bipyrrolidinyl-1′-yl)-phenyl]-3-thiophen-2-ylmethyl-urea trifluoroacetate] displayed a Ki of 0.002 µM.

For `Cc1cc(NC(=O)NCc2cc(Cl)cc(Cl)c2)ccc1N1CCC(N2CCCC2C)C1` (stereo not shown) [Example 9, 1-(3,5-Dichloro-benzyl)-3-[3-methyl-4-(2-methyl-[1,3′]bipyrrolidinyl-1′-yl)-phenyl]-urea trifluoroacetate], the Ki came to 0.0289 µM.

Compound `Cc1cc(NC(=O)NC2CCCCC2)ccc1N1CCC(N2CCCC2C)C1` (stereo not shown) [Example 10, 1-Cyclohexyl-3-[3-methyl-4-(2-methyl-[1,3′]bipyrrolidinyl-1′-yl)-phenyl]-urea trifluoroacetate] returned an inhibition constant Ki of 0.0112 µM.

`Cc1cc(NC(=O)NCc2cccs2)ccc1N1CCC(N2CCCC2C)C1` (stereo not shown) [Example 11, 1-[3-Methyl-4-(2-methyl-[1,3′]bipyrrolidinyl-1′-yl)-phenyl]-3-thiophen-2-ylmethyl-urea trifluoroacetate] came in with a Ki of 0.0084 µM.

In the case of `CC1CCCN1C1CCN(c2ccc(NC(=O)Nc3cc(Cl)cc(Cl)c3)cc2)C1` (stereo not shown) [Example 12, 1-(3,5-Dichloro-phenyl)-3-[4-(2-methyl-[1,3′]bipyrrolidinyl-1′-yl)-phenyl]-urea trifluoroacetate], the Ki came to 0.0191 µM.

Regarding `CC(=O)N1CCN(C(=O)Nc2ccc(N3CCC(N4CCCC4C)C3)cc2)CC1` (stereo not shown) [Example 13, 4-Acetyl-piperazine-1-carboxylic acid [4-(2-methyl-[1,3′]bipyrrolidinyl-1′-yl)-phenyl]-amide trifluoroacetate], the Ki came out at 0.0341 µM.

The compound `CC(=O)N(C)C1CCN(C(=O)Nc2ccc(N3CCC(N4CCCC4C)C3)cc2)C1` (stereo not shown) [Example 14, 3-(Acetyl-methyl-amino)-pyrrolidine-1-carboxylic acid [4-(2-methyl-[1,3′]bipyrrolidinyl-1′-yl)-phenyl]-amide trifluoroacetate] yielded a Ki of 0.0355 µM.

The compound `Cc1cc(N2CCC(N3CCCC3C)C2)ccc1NC(=O)Nc1cc(Cl)cc(Cl)c1` (stereo not shown) [Example 15, 1-(3,5-Dichloro-phenyl)-3-[2-methyl-4-(2-methyl-[1,3′]bipyrrolidinyl-1′-yl)-phenyl]-urea trifluoroacetate] displayed a Ki of 0.0222 µM.

As for `Cc1cc(N2CCC(N3CCCC3C)C2)ccc1NC(=O)NC1CCCCC1` (stereo not shown) [Example 16, 1-Cyclohexyl-3-[2-methyl-4-(2-methyl-[1,3′]bipyrrolidinyl-1′-yl)-phenyl]-urea trifluoroacetate], the affinity corresponds to a Ki of 0.0046 µM.

`Cc1cc(N2CCC(N3CCCC3C)C2)ccc1NC(=O)N1CCN(C)CC1` (stereo not shown) [Example 17, 4-Methyl-piperazine-1-carboxylic acid [2-methyl-4-(2-methyl-[1,3′]bipyrrolidinyl-1′-yl)-phenyl]-amide trifluoroacetate]: the Ki stood at 0.0105 µM.

`Cc1cc(N2CCC(N3CCCC3C)C2)ccc1NC(=O)N1Cc2ccccc2C1` (stereo not shown) [Example 18, 1,3-Dihydro-isoindole-2-carboxylic acid [2-methyl-4-(2-methyl-[1,3′]bipyrrolidinyl-1′-yl)-phenyl]-amide trifluoroacetate] displayed a Ki of 0.0108 µM.

In turn, `Cc1cc(NC(=O)Nc2cc(Cl)cc(Cl)c2)ccc1N1CCC(N2CCCC2C)C1` (stereo not shown) [Example 19, 1-(3,5-Dichloro-phenyl)-3-[3-methyl-4-(2-methyl-[1,3′]bipyrrolidinyl-1′-yl)-phenyl]-urea trifluoroacetate] had a Ki of 0.043 µM.

For `Cc1cc(NC(=O)N2CCN(C)CC2)ccc1N1CCC(N2CCCC2C)C1` (stereo not shown) [Example 20, 4-Methyl-piperazine-1-carboxylic acid [3-methyl-4-(2-methyl-[1,3′]bipyrrolidinyl-1′-yl)-phenyl]-amide trifluoroacetate], the inhibition constant (Ki) worked out at 0.0127 µM.

Take `Cc1cc(NC(=O)N2Cc3ccccc3C2)ccc1N1CCC(N2CCCC2C)C1` (stereo not shown) [Example 21, 1,3-Dihydro-isoindole-2-carboxylic acid [3-methyl-4-(2-methyl-[1,3′]bipyrrolidinyl-1′-yl)-phenyl]-amide trifluoroacetate]: the Ki was 0.008 µM.

Turning to `CC(=O)N1CCN(C(=O)Nc2ccc(N3CCC(N4CCCC4C)C3)c(C)c2)CC1` (stereo not shown) [Example 22, 4-Acetyl-piperazine-1-carboxylic acid [3-methyl-4-(2-methyl-[1,3′]bipyrrolidinyl-1′-yl)-phenyl]-amide trifluoroacetate], affinity was put at a Ki of 0.023 µM.

`Cc1cc(NC(=O)Nc2cccc(C#N)c2)ccc1N1CCC(N2CCCC2C)C1` (stereo not shown) [Example 23, 1-(3-Cyano-phenyl)-3-[3-methyl-4-(2-methyl-[1,3′]bipyrrolidinyl-1′-yl)-phenyl]-urea trifluoroacetate]: the affinity corresponds to a Ki of 0.0063 µM.

In turn, `Cc1cc(NC(=O)N2CCCCC2)ccc1N1CCC(N2CCCC2C)C1` (stereo not shown) [Example 24, Piperidine-1-carboxylic acid [3-methyl-4-(2-methyl-[1,3′]bipyrrolidinyl-1′-yl)-phenyl]-amide trifluoroacetate] showed a Ki of 0.029 µM.

For the compound `CC1CCCN1C1CCN(c2ccc(NC(=O)NCc3cc(Cl)cc(Cl)c3)c(C(F)(F)F)c2)C1` (stereo not shown) [Example 25, 1-(3,5-Dichloro-benzyl)-3-[4-(2-methyl-[1,3′]bipyrrolidinyl-1′-yl)-2-trifluoromethyl-phenyl]-urea trifluoroacetate], affinity was put at a Ki of 0.0181 µM.
